We go through two compounds from US20220401324A1, “COSMETIC PREPARATION WITH ANISIC ACID AND LEVULINIC ACID, HAVING SELECTIVE ANTIMICROBIAL EFFECT” (BEIERSDORF AG, priority 2019, published 2022).

In one assay the test system is C. acnes (DSM 1897). The assay is described as follows: Suspension test with C. acnes. Conditions: anaerobic medium, sampled after 1 h, 3 h and 6 h. The assay is classed as cell-based, Cutibacterium acnes. How it is done:
(§1) The effect of the formulations according to the invention was further tested in suspension tests with S. epidermidis and C. acnes. […] These liquid stock cultures were used to prepare a first passage. Here, a sterile disposable inoculation loop was used to streak the relevant culture on an agar plate (C. acnes: COST agar, S. epidermidis: COAST agar) and the culture was then incubated. The cultures of C. acnes were incubated at 37° C. for 5 days, whereas the cultures of S. epidermidis were incubated at 37° C. for 24 h. Said first passage was then used to prepare a second passage by picking of a few colonies using a sterile disposable inoculation loop and subsequent streaking thereof onto a new agar plate. Said second passage was then incubated at the appropriate temperature for 5 days or 24 h. The second passage obtained was then used for the suspension test.
(§2) To prepare the suspensions, a few colonies of the second passage were removed using a sterile inoculation loop and added to 10 mL of medium in a baffled flask containing 5 g of glass beads (4 mm diameter) and gently shaken for 3 min. Thereafter, optical density (OD) was used to set the approximate number of cells per mL. Optical density was determined at 600 nm using an Eppendorf photometer. The OD obtained was adjusted to a value around 0.8 (±0.01) and then diluted again 1:50. […]

Assay [1] concerns S. epidermidis (DSM 1798). Briefly: Suspension test with S. epidermidis. The assay is classed as cell-based, Staphylococcus epidermidis. The note with it: BHI medium, sampled after 1 h, 3 h and 6 h. On the procedure:
as §1, §2

As for `CC(=O)CCC(=O)O` [levulinic acid, 4-oxopentanoic acid], the “cell count of the anaerobic bacterium C. acnes (FIGS. 4 and 5)” value with C. acnes (DSM 1897) is “does not lead to a reduction in the cell count”. In assay [1], the “growth of the aerobic bacterium S. epidermidis (FIGS. 4 and 5)” value was “does not significantly affect the growth”.
For `COc1ccc(C(=O)O)cc1` [anisic acid, 4-methoxybenzoic acid], the “cell count of the anaerobic bacterium C. acnes (FIGS. 4 and 5)” value in the assay with C. acnes (DSM 1897) is “does not lead to a reduction in the cell count”. Moreover, the “growth of the aerobic bacterium S. epidermidis (FIGS. 4 and 5)” value in assay [1] is reported as “does not significantly affect the growth”.
